One series has as its system 5 × FAD mice. Kind of series: Tolerability and body weight during 30-day treatment. It counts as in vivo, mouse. The text has this: The amyloidogenic characteristics of 5 × FAD mice have been described previously. In brief, 5 × FAD mice express the Swedish/London/Florida mutations of the human amyloid precursor protein (hAPP) and the M146L/L286V mutations of the human presenilin-1 (PSEN1). They develop the early and robust pathology of AD with the cognitive and behavioural impairments. The 5 × FAD mice have been widely used to test the possible efficacy of a compound targeted for AD[25][29]. We maintained the mice on a C57BL/6 × SJL hybrid background. All animal experiments were performed in accordance with the guidelines of the Asan Institute for Life Science for Laboratory Animal Care and Use (Seoul, Korea), where the animals had free access to water and food, and were housed on 12 h light/12 h dark cycle.
(§1) Chemicals used were freshly prepared shortly before administration to the animals. We treated 5 × FAD mice with 1 (1 mg kg^−1 of body weight) or the vehicle (1% v/v DMSO in 20 mM HEPES, pH 7.4, 150 mM NaCl) starting at 3 months of age, which is the same method used in our previous studies. 1 was daily injected into the lower abdomen of the 5 × FAD mice for 30 days.

The subject of a further series is 5 × FAD AD mouse model. Kind of series: Morris water maze test. It is filed as in vivo. As to conditions: 1 mg kg^−1 daily i.p., 30 days. The method, then: as §1
Mice were subjected to the Morris water maze test to assess their performance of spatial learning and memory. The water maze was a circular plastic pool (120 cm diameter) and filled with murky water (21.0±1.0 °C). A cylindrical escape platform (15 cm diameter) stood 0.5 cm under the water surface. Three hours after the 30th compound treatment, the mice were allowed the first training to swim and find the hidden escape platform in the water with three repeats per training. Thereafter, they daily tried the task on the next 4 consecutive days. Three hours after the final escape test, the platform was removed, and the mice exercised a probe trial for 60 s. The animal performance was traced with SMART Video Tracking System (Harvard Apparatus, Holliston, MA, USA).

Series [1] in a line: Cell viability (MTT assay), compounds with and without metal ions. It counts as cell-based, human. As to conditions: human, SK-N-BE(2)-M17 (M17) neuroblastoma cells; M17 cells, in the absence of Cu(II), 48 and 72 h. The method, then:
The M17 cell line was purchased from the American Type Culture Collection (ATCC, Manassas, VA, USA). The cell line was maintained in media containing 50% minimum essential medium and 50% F12 (GIBCO, Grand Island, NY, USA), supplemented with 10% fetal bovine serum (Sigma), 100 U ml^−1 penicillin, and […] streptomycin (GIBCO). The cells were grown and maintained at 37 °C in a humidified atmosphere with 5% CO2. […] Cell viability upon treatment of compounds was determined using the MTT assay (Sigma). M17 cells were seeded in a 96-well plate (15,000 cells in 100 μl per well). The cells were treated with Aβ (20 μM) with or without CuCl2 or ZnCl2 (20 μM), followed by the addition of compounds (20 μM, 1% v/v final DMSO concentration), and incubated for 24 h. After incubation, 25 μl MTT (5 mg ml^−1 in phosphate buffered saline (PBS, pH 7.4, GIBCO) was added to each well and the plate was incubated for 4 h at 37 °C. Formazan produced by the cells was solubilized using an acidic solution of N,N-dimethylformamide (DMF, 50%, v/v aq) and SDS (20%, w/v) overnight at room temperature in the dark. The absorbance was measured at 600 nm using a microplate reader. Cell viability was calculated relative to cells containing an equivalent amount of DMSO.
For orientation: Formazan colour is commonly taken as a measure of viable cells.

A short description of series [2]: UV–vis variable-pH titration (pKa). It is filed as physicochemical. The conditions noted are these: aqueous solution (10 mM NaOH, 100 mM NaCl) titrated with HCl, 100 μM. The method, then: The pKa value for 2 was determined by UV–vis variable-pH titrations as previously reported. To establish the pKa value, a solution (10 mM NaOH, pH 12, 100 mM NaCl) of 2 (100 μM) was titrated with small amounts of HCl. At least 30 spectra were recorded in the range of pH 2–10. Similarly, a solution containing CuCl2 and 2 (50 μM) in a metal to ligand ratio of 1:2 was titrated with small additions of HCl and at least 30 spectra were recorded over the range pH 2–7. The acidity and stability constants were calculated by using the HypSpec program (Protonic Software, UK)[56]. Speciation diagrams were modelled in the HySS2009 program (Protonic Software)[57].

Setting [3] is: 1 mg kg^−1 daily, intraperitoneal, 30 days, 5 × FAD mice.

The values below come from paper PMC5065625, “Structure-mechanism-based engineering of chemical regulators targeting distinct pathological factors in Alzheimer's disease” (Nature Communications, 2016).

In general, viability refers to a read-out of living cells in per cent, often relative to untreated cells. A higher viability goes with better survival. In general, pKa refers to the negative logarithm of the acid dissociation constant. A low value points to a group that gives up its proton readily.

With `Nc1ccc(NCc2ccccn2)cc1` [compound 1, N^1-(pyridin-2-ylmethyl)benzene-1,4-diamine], in the series with 5 × FAD mice (setting [3]), the “Body weight versus vehicle-treated mice” value is “no difference in body weight” and the “Tolerability of repeated treatments” value is listed as “tolerated the repeated treatments”. Besides, in the series on 5 × FAD mice (5×FAD mice, 1 mg/kg/day, mean), the “Body weight, female, day 1” value came to 20.8 gram; the “Body weight, female, day 3” value was 20.8 gram; the “Body weight, female, day 6” value worked out at 20.8 gram; the “Body weight, female, day 9” value was 21.0 gram. Moreover, in the series on 5 × FAD mice (5×FAD mice, 1 mg/kg/day, mean), the “Body weight, female, day 12” value was determined as 21.2 gram; the “Body weight, female, day 15” value amounted to 20.8 gram; the “Body weight, female, day 18” value came out at 21.2 gram; the “Body weight, female, day 21” value turned out to be 21.4 gram. Also, in the series on 5 × FAD mice (5×FAD mice, 1 mg/kg/day, mean), the “Body weight, female, day 24” value is 21.4 gram; the “Body weight, female, day 27” value is 21.8 gram; the “Body weight, female, day 30” value amounted to 21.6 gram; the “Body weight, male, day 1” value was determined as 28.0 gram. In the series with 5 × FAD mice (5×FAD mice, 1 mg/kg/day, mean), the “Body weight, male, day 3” value amounted to 27.6 gram; the “Body weight, male, day 6” value amounted to 27.6 gram; the “Body weight, male, day 9” value is listed as 27.8 gram; the “Body weight, male, day 12” value was 27.4 gram. In the series on 5 × FAD mice (5×FAD mice, 1 mg/kg/day, mean), the “Body weight, male, day 15” value came out at 27.8 gram; the “Body weight, male, day 18” value was 28.0 gram; the “Body weight, male, day 21” value turned out to be 27.8 gram; the “Body weight, male, day 24” value is reported as 27.6 gram. In addition, in the series with 5 × FAD mice (5×FAD mice, 1 mg/kg/day, mean), the “Body weight, male, day 27” value is 28.0 gram and the “Body weight, male, day 30” value was determined as 27.0 gram. Besides, in the series on 5 × FAD AD mouse model, the “Finding the hidden escape platform (trial trainings)” value is “faster than the vehicle-treated 5 × FAD mice” and the “Probe trials, long-term spatial memory” value was “significant improvement of the long-term spatial memory”.

In turn, `CN(C)c1ccc(NCc2ccc[nH]2)cc1` [compound 4, N^1-((1H-pyrrol-2-yl)methyl)-N^4,N^4-dimethylbenzene-1,4-diamine] displayed a viability at up to 20 μM in series [1] of about 60%.

In series [2], `COc1cc(NCc2ccccn2)cc(OC)c1` [compound 2, 3,5-dimethoxy-N-(pyridin-2-ylmethyl)aniline] returned a pKa of 5.
